Data published in patent US10654847B2, “Substituted 2-(4-heterocyclylbenzyl)isoindolin-1-one analogs as positive allosteric modulators of the muscarinic acetylcholine receptor M1” (Vanderbilt University, priority 2011, dated 2020).
Values belong to the molecule of their own block, whether it stands above or below them.

Biological target: T1, mAChR M1 (UniProt P11229)
T1 sequence (P11229 1-460): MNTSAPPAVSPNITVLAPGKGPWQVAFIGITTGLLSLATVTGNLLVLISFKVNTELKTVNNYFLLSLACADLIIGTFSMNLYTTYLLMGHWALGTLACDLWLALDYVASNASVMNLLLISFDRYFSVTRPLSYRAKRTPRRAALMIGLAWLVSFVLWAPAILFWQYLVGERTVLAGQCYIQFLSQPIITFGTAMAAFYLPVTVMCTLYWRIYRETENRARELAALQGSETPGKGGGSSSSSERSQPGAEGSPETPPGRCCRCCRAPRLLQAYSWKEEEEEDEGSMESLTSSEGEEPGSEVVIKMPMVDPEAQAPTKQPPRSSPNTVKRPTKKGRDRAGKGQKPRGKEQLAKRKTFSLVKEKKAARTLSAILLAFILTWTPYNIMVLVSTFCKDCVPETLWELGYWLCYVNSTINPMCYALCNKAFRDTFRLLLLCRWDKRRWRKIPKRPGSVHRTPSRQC
Experiment: mAChR M1 cell-based functional assay (calcium mobilization, potentiation of EC20 acetylcholine response)
Details: for Emax (%): % ACh maximum at 30 μM, mAChR M1-expressing CHO-K1 cells, calcium flux; for pEC50 / EC50: positive allosteric modulation of EC20 ACh response, mAChR M1 CHO-K1 cells; for pEC50: <5 estimated where no plateau; for EC50: >10 μM estimated where no plateau, read-out: EC50
Experimental: Chinese hamster ovary (CHO-K1) cells stably expressing rat (r)M1 were purchased from the American Type Culture Collection and cultured according to their indicated protocol. […] To make stable rM2, hM2, rM3, hM4, and rM4 cell lines for use in calcium mobilization assays, these cells also were stably transfected with a chimeric G-protein (Gqi5) (provided by B. R. Conklin, University of California, San Francisco) using Lipofectamine 2000. rM1, hM1, rM3, hM3, rM5, and hM5 cells were grown in Ham's F-12 medium containing 10% heat-inactivated fetal bovine serum (FBS), 20 mM HEPES, and 50 μg/mL G418 sulfate. rM2-Gqi5, hM2-Gqi5, and hM4-Gqi5 cells were grown in the same medium also containing 500 μg/mL Hygromycin B. Stable rM4-Gqi5 cells were grown in DMEM containing 10% heat-inactivated FBS, 20 mM HEPES, 400 μg/mL G418 sulfate, and 500 μg/mL Hygromycin B.
For high throughput measurement of agonist-evoked increases in intracellular calcium, CHO-K1 cells stably expressing muscarinic receptors were plated in growth medium lacking G418 and hygromycin at 15,000 cells/20 μL/well in Greiner 384-well black-walled, tissue culture (TC)-treated, clear-bottom plates (VWR). Cells were incubated overnight at 37° C. and 5% CO2. […] Compound master plates were formatted in an 11 point CRC format (1:3 dilutions) in 100% DMSO with a starting concentration of 10 mM using the BRAVO liquid handler (Agilent). Test compound CRCs were then transferred to daughter plates (240 nL) using the Echo acoustic plate reformatter (Labcyte, Sunnyvale, Calif.) and then diluted into assay buffer (40 μL) to a 2× stock using a Thermo Fisher Combi (Thermo Fisher Scientific, Waltham, Mass.).
Calcium flux was measured using the Functional Drug Screening System (FDSS) 6000 (Hamamatsu Corporation, Tokyo, Japan) as an increase in the fluorescent static ratio. Compounds were applied to cells (20 μL, 2×) using the automated system of the FDSS 6000 at 4 s into the 300 s protocol and the data were collected at 1 Hz. […] Agonist activity was analyzed as a concentration-dependent increase in calcium mobilization upon compound addition. Positive allosteric modulator activity was analyzed as a concentration-dependent increase in the EC20 acetylcholine response. Antagonist activity was analyzed as a concentration-dependent decrease in the EC80 acetylcholine response. Concentration-response curves were generated using a four-parameter logistical equation in XLfit curve fitting software (IDBS, Bridgewater, N.J.) for Excel (Microsoft, Redmond, Wash.) or Prism (GraphPad Software, Inc., San Diego, Calif.).
The above described assay was also operated in a second mode where an appropriate fixed concentration of the present compounds were added to the cells after establishment of a fluorescence baseline for about 3 seconds, and the response in cells was measured. […] Data were reduced as described above and the EC50 values for the agonist in the presence of test compound were determined by nonlinear curve fitting. A decrease in the EC50 value of the agonist with increasing concentrations of the present compounds (a leftward shift of the agonist concentration-response curve) is an indication of the degree of muscarinic positive allosteric modulation at a given concentration of the present compound. An increase in the EC50 value of the agonist with increasing concentrations of the present compounds (a rightward shift of the agonist concentration response curve) is an indication of the degree of muscarinic antagonism at a given concentration of the present compound. The second mode also indicates whether the present compounds also affect the maximum response of the muscarinic receptor to agonists.
The calcium mobilization assay was also used to determine “efficacy”.

Structure (SMILES): Cn1cc2c(-c3cc(F)c(CN4Cc5ncccc5C4=O)cc3F)cccc2n1 [Example B87]
Emax (%): 68%
pEC50: 5.22
EC50: 6.03 µM

Structure (SMILES): O=C1c2cccnc2CN1Cc1c(F)cc(-c2cnc3ccccn23)cc1F [Example B88]
Emax (%): 63%
pEC50: <5.00
EC50: > 10 µM

Structure (SMILES): O=C1c2cccnc2CN1Cc1c(F)cc(-c2cccc3nccn23)cc1F [Example B89]
Emax (%): 48%
pEC50: <5.00
EC50: > 10 µM

Structure (SMILES): O=C1c2cccnc2CN1Cc1ccc(-c2cn3ccnc3cn2)cc1F [Example B90]
Emax (%): 53%
pEC50: <5.00
EC50: > 10 µM

Structure (SMILES): O=C1c2cccnc2CN1Cc1ccc(-c2cnc3ccccn23)cc1F [Example B93]
Emax (%): 65%
pEC50: 5.53
EC50: 2.95 µM

Structure (SMILES): O=C1c2cccnc2CN1Cc1c(F)cc(-c2cccc3ncccc23)cc1F [Example B95]
Emax (%): 53%
pEC50: <5.00
EC50: > 10 µM

Structure (SMILES): O=C1c2cccnc2CN1Cc1c(F)cc(-c2cccc3cnccc23)cc1F [Example B99]
Emax (%): 41%
pEC50: <5.00
EC50: > 10 µM

Structure (SMILES): O=C1c2cccnc2CN1Cc1c(F)cc(-c2ccc3c(c2)C2(OCCO2)C(=O)N3)cc1F [Example B101]
Emax (%): 48%
pEC50: <5.00
EC50: > 10 µM

Structure (SMILES): Cn1cc2cc(-c3cccc(CN4Cc5ncccc5C4=O)c3F)ccc2n1 [Example B106]
Emax (%): 41%
pEC50: 5.42
EC50: 3.8 µM

Structure (SMILES): Cn1cc2ccc(-c3ccc(F)c(CN4Cc5ncccc5C4=O)c3)cc2n1 [Example B108]
Emax (%): 56%
pEC50: 5.07
EC50: 8.51 µM

Structure (SMILES): Cn1cc2c(-c3cccc(CN4Cc5ncccc5C4=O)c3F)cccc2n1 [Example B109]
Emax (%): 36%
pEC50: 5.14
EC50: 7.24 µM

Structure (SMILES): Cn1cc2c(-c3ccc(F)c(CN4Cc5ncccc5C4=O)c3)cccc2n1 [Example B110]
Emax (%): 61%
pEC50: 5.71
EC50: 1.95 µM

Structure (SMILES): Cn1cc2cc(-c3ccc(F)c(CN4Cc5ncccc5C4=O)c3)ccc2n1 [Example B111]
Emax (%): 42%
pEC50: 5.63
EC50: 2.34 µM

Structure (SMILES): Cn1cc2c(n1)CCN(c1ccc(CN3Cc4ncccc4C3=O)c(F)c1)C2 [Example B112]
Emax (%): 32%
pEC50: <5.00
EC50: > 10 µM

Structure (SMILES): CC1c2ccccc2C(=O)N1Cc1ccc(-c2cnn(C)c2)cc1F (stereo not drawn) [Example B113]
Emax (%): <30%
pEC50: <5.00
EC50: > 10 µM

Structure (SMILES): Cn1ncc2cc(-c3ccc(CN4Cc5ccccc5C4=O)c(F)c3)ccc21 [Example B114]
Emax (%): <30%
pEC50: <5.00
EC50: > 10 µM

Structure (SMILES): O=S1(=O)c2ccccc2CN1Cc1ccc(-n2cccn2)cc1 [Example B115]
Emax (%): <30%
pEC50: <5.00
EC50: > 10 µM

Structure (SMILES): Cc1nc(-c2ccc(CN3Cc4ccccc4S3(=O)=O)cc2)cs1 [Example B116]
Emax (%): <30%
pEC50: <5.00
EC50: > 10 µM

Structure (SMILES): O=S1(=O)c2ccccc2CN1Cc1ccc(-c2cnns2)cc1 [Example B117]
Emax (%): <30%
pEC50: <5.00
EC50: > 10 µM

Structure (SMILES): Cc1noc(-c2ccc(CN3Cc4ccccc4S3(=O)=O)cc2)n1 [Example B118]
Emax (%): <30%
pEC50: <5.00
EC50: > 10 µM

Structure (SMILES): Cc1nc(-c2ccc(CN3Cc4ccccc4S3(=O)=O)cc2)no1 [Example B119]
Emax (%): <30%
pEC50: <5.00
EC50: > 10 µM

Structure (SMILES): O=S1(=O)c2ccccc2CN1Cc1ccc(-c2coc(-c3ccccc3)n2)cc1 [Example B120]
Emax (%): <30%
pEC50: <5.00
EC50: > 10 µM

Structure (SMILES): O=C1c2ccccc2CN1Cc1ccc(-c2ccc3cc[nH]c3c2)cc1F [Example B121]
Emax (%): <30%
pEC50: <5.00
EC50: > 10 µM

Structure (SMILES): CSc1ncc(-c2ccc(CN3Cc4ccccc4C3=O)c(F)c2)cn1 [Example B122]
Emax (%): <30%
pEC50: <5.00
EC50: > 10 µM

Structure (SMILES): Cc1nnc(-c2ccc(CN3Cc4ccccc4S3(=O)=O)cc2)o1 [Example B123]
Emax (%): <30%
pEC50: <5.00
EC50: > 10 µM

Structure (SMILES): O=S1(=O)c2ccccc2CN1Cc1ccc(Oc2ccccc2)cc1 [Example B124]
Emax (%): <30%
pEC50: <5.00
EC50: > 10 µM

Structure (SMILES): O=S1(=O)c2ccccc2CN1Cc1ccc(-n2cccc2)cc1 [Example B125]
Emax (%): <30%
pEC50: <5.00
EC50: > 10 µM

Molecules with a lower EC50, results first:

Emax (%): 58%
pEC50: 6.25
EC50: 0.562 µM
Structure (SMILES): O=C1Cc2cc(-c3ccc(CN4Cc5ncccc5C4=O)c(F)c3)ccc2N1 [Example B86]

Emax (%): 67%
pEC50: 6.51
EC50: 0.309 µM
Structure (SMILES): O=C1Cc2cc(-c3cc(F)c(CN4Cc5ncccc5C4=O)c(F)c3)ccc2N1 [Example B91]

Emax (%): 62%
pEC50: 6.06
EC50: 0.871 µM
Structure (SMILES): O=C1c2cccnc2CN1Cc1ccc(-c2ccc3cncn3c2)cc1F [Example B92]

Emax (%): 36%
pEC50: 6.71
EC50: 0.195 µM
Structure (SMILES): O=C1c2cccnc2CN1Cc1c(F)cc(-c2ccc3c(c2)OCCO3)cc1F [Example B94]

Emax (%): 54%
pEC50: 6.56
EC50: 0.275 µM
Structure (SMILES): O=C1c2cccnc2CN1Cc1c(F)cc(-c2ccc3ncccc3c2)cc1F [Example B96]

Emax (%): 62%
pEC50: 6.23
EC50: 0.589 µM
Structure (SMILES): O=C1c2cccnc2CN1Cc1c(F)cc(-c2ccc3cnccc3c2)cc1F [Example B97]

Emax (%): 49%
pEC50: 6.68
EC50: 0.209 µM
Structure (SMILES): Cc1n[nH]c2cc(-c3cc(F)c(CN4Cc5ncccc5C4=O)c(F)c3)ccc12 [Example B98]

Emax (%): 71%
pEC50: 5.88
EC50: 1.32 µM
Structure (SMILES): O=C1c2cccnc2CN1Cc1c(F)cc(-c2ccc3cncn3c2)cc1F [Example B100]

Emax (%): 68%
pEC50: 6.91
EC50: 0.123 µM
Structure (SMILES): Cc1n[nH]c2ccc(-c3cc(F)c(CN4Cc5ncccc5C4=O)c(F)c3)cc12 [Example B102]

Emax (%): 56%
pEC50: 5.83
EC50: 1.48 µM
Structure (SMILES): CN1CCc2cc(-c3cc(F)c(CN4Cc5ncccc5C4=O)c(F)c3)ccc21 [Example B103]

Emax (%): 70%
pEC50: 5.82
EC50: 1.51 µM
Structure (SMILES): COc1cc(-c2cccc3nn(C)cc23)ccc1CN1Cc2ncccc2C1=O [Example B104]

Emax (%): 69%
pEC50: 6.39
EC50: 0.407 µM
Structure (SMILES): Cn1cc2cc(-c3cc(F)c(CN4Cc5ncccc5C4=O)cc3F)ccc2n1 [Example B105]

Emax (%): 56%
pEC50: 5.76
EC50: 1.74 µM
Structure (SMILES): CN1Cc2ccc(-c3cc(F)c(CN4Cc5ncccc5C4=O)c(F)c3)cc2C1 [Example B107]
